The text below walks through data of patent publication US20080194482A1, “Selective Apac2 Receptor Peptide Agonists” (priority 2005, published 2008).

One data set deals with T1, rat VPAC1 receptor (Rattus norvegicus, UniProt P30083).
T1 construct: expressed in transfected cells; host or cells: CHO-PO (transient, Lipofectamine)
T1 sequence (P30083 31-459): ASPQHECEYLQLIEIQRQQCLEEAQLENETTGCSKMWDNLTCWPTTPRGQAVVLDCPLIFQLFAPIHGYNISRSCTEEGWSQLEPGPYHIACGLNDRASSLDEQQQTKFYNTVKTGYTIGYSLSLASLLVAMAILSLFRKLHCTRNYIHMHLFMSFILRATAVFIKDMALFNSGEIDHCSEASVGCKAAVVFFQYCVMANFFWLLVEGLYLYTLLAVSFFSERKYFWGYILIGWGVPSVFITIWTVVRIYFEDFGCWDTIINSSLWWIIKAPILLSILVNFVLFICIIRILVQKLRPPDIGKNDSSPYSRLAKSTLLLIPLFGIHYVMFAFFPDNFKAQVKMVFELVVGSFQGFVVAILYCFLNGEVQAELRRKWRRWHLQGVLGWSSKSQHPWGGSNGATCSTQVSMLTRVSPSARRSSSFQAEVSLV
Nature of the data set: DiscoveRx cAMP assay, in vitro potency at rat VPAC1 receptor. It is filed as cell-based. The following applies: CHO-PO cells transiently transfected with rat VPAC1; cAMP generation; mean of two independent runs. How it is done:
(§1) DiscoveRx: CHO-PO cells are transiently transfected with rat VPAC1 or VPAC2 receptor DNA using commercially available transfection reagents (Lipofectamine from Invitrogen). The cells are seeded at a density of 10,000/well in a 96-well plate and are allowed to grow for 3 days in […] culture medium. At day 3, the assay is performed.
(§2) On the day of the experiment, the medium is removed. Also, the cells are washed twice. The cells are incubated in assay buffer plus IBMX for 15 minutes at room temperature. Afterwards, the stimuli are added and are dissolved in assay buffer. The stimuli are present for 30 minutes. Then, the assay buffer is gently removed. The cell lysis reagent of the DiscoveRx cAMP kit is added. Thereafter, the standard protocol for developing the cAMP signal as described by the manufacturer is used (DiscoveRx Inc., USA). EC50 values for cAMP generation are calculated from the raw signal or are based on absolute cAMP levels as determined by a standard curve performed on each plate.
(§3) Results for each agonist are the mean of two independent runs. Rat VPAC1 and VPAC2 results are only generated using the DiscoveRx assay.

Another data set has as its target T2, human PAC1 (Homo sapiens, UniProt P41586).
T2 construct: expressed in transfected cells
T2 sequence (P41586 21-468): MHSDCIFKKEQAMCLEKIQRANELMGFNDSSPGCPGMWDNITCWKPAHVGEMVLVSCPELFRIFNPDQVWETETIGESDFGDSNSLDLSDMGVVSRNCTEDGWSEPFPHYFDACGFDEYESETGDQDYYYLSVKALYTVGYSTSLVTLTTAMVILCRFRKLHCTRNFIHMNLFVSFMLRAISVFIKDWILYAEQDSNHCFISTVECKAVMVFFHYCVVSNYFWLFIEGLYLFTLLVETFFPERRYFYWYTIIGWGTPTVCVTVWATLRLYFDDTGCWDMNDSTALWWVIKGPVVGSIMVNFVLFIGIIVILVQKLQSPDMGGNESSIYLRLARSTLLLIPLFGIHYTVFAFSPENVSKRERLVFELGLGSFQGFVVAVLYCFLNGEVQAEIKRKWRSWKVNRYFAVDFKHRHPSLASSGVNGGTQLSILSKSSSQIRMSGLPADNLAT
In words: Filter binding assay, 125I-labeled PACAP-27 tracer, PAC1 membranes. The following applies: read-out: Human PAC1 Receptor Binding (IC50; nM).

Data set [1] in a line: Rat serum stability (activity remaining, CHO-VPAC2 DiscoveRx read-out). It is filed as in vitro ADME. An outline of the steps: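 Peptides preincubated overnight in rat serum at 37 °C without aprotinin versus 4 °C with aprotinin, then tested as 11-point 5× dilutions in duplicate on CHO-VPAC2 cells, 30 min at RT. cAMP measured by DiscoveRx kit against standards; EC50 derived for each aliquot.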

The target in another data set is T3, human VPAC1 (Homo sapiens, UniProt P32241).
T3 construct: expressed in transfected cells
T3 sequence (P32241 31-457): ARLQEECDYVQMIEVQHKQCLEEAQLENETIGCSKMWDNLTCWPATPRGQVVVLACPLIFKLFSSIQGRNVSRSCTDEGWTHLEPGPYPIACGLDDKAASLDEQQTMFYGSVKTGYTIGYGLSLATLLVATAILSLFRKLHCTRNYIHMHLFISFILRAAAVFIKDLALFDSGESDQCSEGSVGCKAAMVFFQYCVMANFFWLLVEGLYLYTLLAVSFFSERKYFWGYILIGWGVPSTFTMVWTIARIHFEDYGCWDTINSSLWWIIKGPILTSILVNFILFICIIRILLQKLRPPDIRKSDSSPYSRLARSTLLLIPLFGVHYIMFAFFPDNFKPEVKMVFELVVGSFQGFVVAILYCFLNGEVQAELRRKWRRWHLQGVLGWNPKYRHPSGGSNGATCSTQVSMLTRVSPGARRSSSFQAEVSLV
In words: Filter binding assay, 125I-labeled VIP tracer, VPAC1 membranes. The conditions noted are these: read-out: Human VPAC1 Receptor Binding (IC50; nM).

Data set [2] deals with T4, human VPAC2 (Homo sapiens, UniProt P41587).
T4 construct: expressed in transfected cells
T4 sequence (P41587 24-438): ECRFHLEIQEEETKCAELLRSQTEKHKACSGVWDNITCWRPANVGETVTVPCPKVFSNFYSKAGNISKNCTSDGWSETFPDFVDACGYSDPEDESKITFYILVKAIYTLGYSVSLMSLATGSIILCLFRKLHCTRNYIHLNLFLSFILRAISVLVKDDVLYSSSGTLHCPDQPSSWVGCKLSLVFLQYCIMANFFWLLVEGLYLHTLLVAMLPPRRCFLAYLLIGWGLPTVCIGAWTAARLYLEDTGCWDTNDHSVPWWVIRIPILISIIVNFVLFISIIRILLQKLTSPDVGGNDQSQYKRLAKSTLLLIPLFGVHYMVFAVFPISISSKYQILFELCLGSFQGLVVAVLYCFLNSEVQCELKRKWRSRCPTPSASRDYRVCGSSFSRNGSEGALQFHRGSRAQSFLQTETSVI
Nature of the data set: Filter binding assay, 125I-labeled VIP tracer, VPAC2 membranes. The conditions noted are these: read-out: Human VPAC2 Receptor Binding (IC50; nM).

Data set [3] addresses T4, human VPAC2. In words: Alpha screen cAMP assay, in vitro potency at human VPAC2 receptor. It is filed as cell-based. The conditions noted are these: cAMP generation; single result from two analyses in a single run, some values average of more than one experiment.
A further data set has as its target T5, rat VPAC2 receptor (Rattus norvegicus, UniProt P35000).
T5 construct: expressed in transfected cells; host or cells: CHO-PO (transient, Lipofectamine)
T5 sequence (P35000 23-437): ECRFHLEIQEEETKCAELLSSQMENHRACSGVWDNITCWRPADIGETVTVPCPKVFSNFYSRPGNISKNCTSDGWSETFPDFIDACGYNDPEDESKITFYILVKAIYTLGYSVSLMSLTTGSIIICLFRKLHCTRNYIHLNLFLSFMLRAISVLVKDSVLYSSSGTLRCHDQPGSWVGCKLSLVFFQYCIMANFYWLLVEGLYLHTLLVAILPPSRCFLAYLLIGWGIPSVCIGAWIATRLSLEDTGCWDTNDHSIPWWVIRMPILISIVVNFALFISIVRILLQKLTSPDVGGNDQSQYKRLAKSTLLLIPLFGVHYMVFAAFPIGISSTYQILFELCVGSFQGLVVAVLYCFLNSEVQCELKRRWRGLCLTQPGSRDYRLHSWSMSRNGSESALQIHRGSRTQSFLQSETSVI
Nature of the data set: DiscoveRx cAMP assay, in vitro potency at rat VPAC2 receptor. It is filed as cell-based. The conditions noted are these: CHO-PO cells transiently transfected with rat VPAC2; cAMP generation; mean of two independent runs. The procedure:
as §1, §2, §3

Square brackets hold non-standard residues; d marks the D form. Peptide text beside a SMILES is read from it. * marks the point of attachment. Orn = NCCC[C@H](N)C(=O)O; Hexanoyl = CCCCCC(=O)*; Aib = CC(C)(N)C(=O)O

`CCCCCC(=O)N[C@@H](Cc1c[nH]cn1)C(=O)N[C@@H](CO)C(=O)N[C@@H](CC(=O)O)C(=O)N[C@@H](C)C(=O)N[C@H](C(=O)N[C@@H](Cc1ccccc1)C(=O)N[C@H](C(=O)N[C@@H](CC(=O)O)C(=O)N[C@@H](CC(N)=O)C(=O)N[C@@H](Cc1ccc(O)cc1)C(=O)N[C@H](C(=O)N[C@@H](CCCN)C(=O)N[C@@H](CC(C)C)C(=O)N[C@@H](CCCNC(=N)N)C(=O)NC(C)(C)C(=O)N[C@@H](CCC(N)=O)C(=O)N[C@H](C(=O)N[C@@H](C)C(=O)N[C@@H](C)C(=O)NC(C)(C)C(=O)N[C@@H](CCCCN)C(=O)N[C@@H](Cc1ccc(O)cc1)C(=O)N[C@@H](CO)C(=O)N[C@@H](CCC(N)=O)C(=O)N[C@@H](CO)C(=O)N[C@H](C(=O)N[C@@H](CCCN)C(=O)N[C@@H](CC(N)=O)C(=O)N[C@@H](CCCN)C(=O)NCC(=O)NCC(=O)N1CCC[C@H]1C(=O)N[C@@H](CO)C(=O)N[C@@H](CO)C(=O)NCC(=O)N[C@@H](C)C(=O)N1CCC[C@H]1C(=O)N1CCC[C@H]1C(=O)N1CCC[C@H]1C(=O)N[C@@H](CO)C(=O)O)[C@@H](C)CC)C(C)C)[C@@H](C)O)[C@@H](C)O)C(C)C` [Agonist P384] (Hexanoyl-HSDAVFTDNYT[Orn]LR[Aib]QVAA[Aib]KYSQSI[Orn]N[Orn]GGPSSGAPPPS-OH; C-terminus assumed) showed an EC50 at rat VPAC1 receptor greater than 600 nM. Besides, the results for the IC50 on human PAC1 and on human VPAC1 were greater than 25000 nM and greater than 3000 nM, respectively. Besides, the “Rat Serum Stability (estimated purity in % after overnight incub.)” value in data set [1] is recorded as 96.45%.
In turn, `CCCCCC(=O)N[C@@H](Cc1c[nH]cn1)C(=O)N[C@@H](CO)C(=O)N[C@@H](CC(=O)O)C(=O)N[C@@H](C)C(=O)N[C@H](C(=O)N[C@@H](Cc1ccccc1)C(=O)N[C@H](C(=O)N[C@@H](CC(=O)O)C(=O)N[C@@H](CC(N)=O)C(=O)N[C@@H](Cc1ccc(O)cc1)C(=O)N[C@H](C(=O)N[C@@H](CCCN)C(=O)N[C@@H](CC(C)C)C(=O)N[C@@H](CCCNC(=N)N)C(=O)NC(C)(C)C(=O)N[C@@H](CCC(N)=O)C(=O)N[C@H](C(=O)N[C@@H](CO)C(=O)N[C@@H](C)C(=O)NC(C)(C)C(=O)N[C@@H](CCCCN)C(=O)N[C@@H](Cc1ccc(O)cc1)C(=O)N[C@@H](CC(C)C)C(=O)N[C@@H](CCC(N)=O)C(=O)N[C@@H](CO)C(=O)N[C@H](C(=O)N[C@@H](CCCN)C(=O)N[C@@H](CC(N)=O)C(=O)N[C@@H](CCCN)C(=O)NCC(=O)NCC(=O)N1CCC[C@H]1C(=O)N[C@@H](CO)C(=O)N[C@@H](CO)C(=O)NCC(=O)N[C@@H](C)C(=O)N1CCC[C@H]1C(=O)N1CCC[C@H]1C(=O)N1CCC[C@H]1C(=O)N[C@@H](CO)C(=O)O)[C@@H](C)CC)C(C)C)[C@@H](C)O)[C@@H](C)O)C(C)C` [Agonist P388] (Hexanoyl-HSDAVFTDNYT[Orn]LR[Aib]QVSA[Aib]KYLQSI[Orn]N[Orn]GGPSSGAPPPS-OH; C-terminus assumed) showed a half-maximal effective concentration (EC50) on rat VPAC1 receptor greater than 2000 nM. In addition, the values for the IC50 at human VPAC2 [2], at human PAC1 and at human VPAC1 were no less than 100 nM, greater than 25000 nM and greater than 3000 nM, respectively.
On to `CCCCCC(=O)N[C@@H](Cc1c[nH]cn1)C(=O)N[C@@H](CO)C(=O)N[C@@H](CC(=O)O)C(=O)N[C@@H](C)C(=O)N[C@H](C(=O)N[C@@H](Cc1ccccc1)C(=O)N[C@H](C(=O)N[C@@H](CC(=O)O)C(=O)N[C@@H](CCC(N)=O)C(=O)N[C@@H](Cc1ccc(OC)cc1)C(=O)N[C@H](C(=O)N[C@@H](CCCN)C(=O)N[C@@H](CC(C)C)C(=O)N[C@@H](CCCNC(=N)N)C(=O)NC(C)(C)C(=O)N[C@@H](CCC(N)=O)C(=O)N[C@@H](CC(C)C)C(=O)N[C@@H](C)C(=O)N[C@@H](C)C(=O)NC(C)(C)C(=O)N[C@@H](CCCN)C(=O)N[C@@H](Cc1ccc(O)cc1)C(=O)N[C@@H](CC(C)C)C(=O)N[C@@H](CCC(N)=O)C(=O)N[C@@H](CO)C(=O)N[C@H](C(=O)N[C@@H](CCCN)C(=O)N[C@@H](CCCN)C(=O)NCC(=O)NCC(=O)N1CCC[C@H]1C(=O)N[C@@H](CO)C(=O)N[C@@H](CO)C(=O)NCC(=O)N[C@@H](C)C(=O)N1CCC[C@H]1C(=O)N1CCC[C@H]1C(=O)N1CCC[C@H]1C(=O)N[C@@H](CO)C(=O)O)[C@@H](C)CC)[C@@H](C)O)[C@@H](C)O)C(C)C` [Agonist P394] (Hexanoyl-HSDAVFTDQY(Me)T[Orn]LR[Aib]QLAA[Aib][Orn]YLQSI[Orn][Orn]GGPSSGAPPPS-OH; C-terminus assumed), for which the 50% effective concentration (EC50) was determined as 0.48 nM on rat VPAC1 receptor, 0.11 nM at human VPAC2 [3] and 0.03 nM on rat VPAC2 receptor. Moreover, the IC50 on human PAC1 was greater than 25000 nM.
